Results on 4 substances are retold here after patent US20210388029A1, “CYTOPLASMIC TRANSDUCTION PEPTIDE AND INTRACELLULAR MESSENGER COMPRISING SAME” (priority 2016, published 2021).

No end group written: not given here.

The test deals with HeLa cells. Kind of test: Cell membrane penetration activity in HeLa cells, immunostaining / confocal laser scanning microscope. In kind it is cell-based. The note with it: 3 hours; for fluorescence signal versus concentration (zinc finger domain peptides): FITC-conjugated. As to the method: HeLa cells were seeded into a 12-well plate having glass at a density of 1×10^5 cells/well, and then cultured for 24 hours to attach the cells to the glass. Then, cells were treated with FITC-NC peptides at […] concentration for 3 hours. After 3 hours, the cells were washed three times with PBS, the cells were fixed with 3.7% formaldehyde for 20 minutes, and the cells were treated with PBS containing 0.2% Triton X-100 to increase the cell membrane penetration activity. Then, the cells were blocked with 3% BSA for 1 hour, reacted with lamin A/C antibody (Sigma-Aldrich, USA) at room temperature for 2 hours, and washed three times with PBS. Next, the cells were treated with Cy3-conjugated secondary antibody (Jackson ImmunoResearch, USA) at room temperature for 1 hour, washed twice with PBS, and then stained with DAPI (4′,6-diamidino-2-phenylindol) for 10 minutes. The HeLa cell-attached glass was removed and placed on a slide glass.
The HeLa cells were seeded into a 12-well plate containing glass at a density of 1×10^5 cells/well, and then cultured for 24 hours to attach the cells to the glass. Thereafter, the FITC-NC peptide, the trans-activating transcriptional activator peptide (FITC-Tat peptide), the FITC-MA11 peptide, the protein transduction domain-ys peptide (FITC-PTD-ys peptide), the translocation motif peptide (FITC-TLM peptide) and FITC-TD1 peptide were treated with the HeLa cells for 3 hours. After 3 hours, the cells were washed 3 times with PBS and the cells were fixed with 3.7% formaldehyde for 20 minutes. The cells were treated with PBS containing 0.2% Triton X-100 to increase cell membrane penetration activity and blocked with 3% BSA for 1 hour. Then, the cells were reacted with tubulin antibody (Santa Cruz Biotechnology, USA) at room temperature for 2 hours and washed three times with PBS. The cells were treated with Cy3 secondary antibody. They were reacted at room temperature for 1 hour, washed twice with PBS, and stained with DAPI for 10 minutes. The HeLa cell-attached glass was removed and placed on a slide glass.
Further, in order to identify a change in cell membrane penetration activity by FITC-NC peptide, the HeLa cells were treated with hexapeptide, FITC-hexapeptide, FITC-NC-hexapeptide, FITC-13NC35 peptide and FITC-29NC50 peptide for 3 hours in the same manner as above and observed with a confocal laser scanning microscope. Meanwhile, the amino acid sequences of the hexapeptide, PTD-ys peptide, TLM peptide, TD1 peptide, NC-hexapeptide, 13NC35 peptide and 29NC50 peptide used are shown in Table 5 below.

Consider “13NC35 peptide: 13th to 35th amino acid of HIV-NC with first zinc finger domain, SEQ ID NO: 10 VKCFNCGKEGHTARNCRAPRKKG (cysteine pairing not given here; also: FITC label, place not given here)”, for which the “fluorescence signal versus concentration (zinc finger domain peptides)” value was “fluorescence signals were increased in proportion to the concentration”.

Take “29NC50 peptide: 29th to 50th amino acid of HIV-NC with second zinc finger domain, SEQ ID NO: 11 RAPRKKGCWKCGKEGHQMKDCT (cysteine pairing not given here; also: FITC label, place not given here)”: the “fluorescence signal versus concentration (zinc finger domain peptides)” value was “fluorescence signals were increased in proportion to the concentration”.

On to “FITC-TLM peptide: translocation motif peptide, SEQ ID NO: 7 PLSSIFSRIGDP, FITC-conjugated [reference compound]”, for which the “cell membrane penetration (confocal)” value (20 μM) is listed as “hardly penetrable to the cell membrane”.

Consider “hexapeptide: polypeptide cargo, SEQ ID NO: 5 EEMQRR (also: FITC label, place not given here)”, for which, under “FITC-labelled”, the “cell membrane penetration of polypeptide cargo (confocal)” value is on record as “did not penetrate the cell membrane”.
